# Measurements: US8232406B2, “c-MET protein kinase inhibitors” (Vertex Pharmaceuticals Incorporated, priority 2006, dated 2012)
# Target: c-MET (Homo sapiens, UniProt P08581)
# Assay: Ki determination for the inhibition of c-MET (standard radiometric 33P-ATP kinase assay, polyE4Y substrate)
# Type: biochemical
# Conditions: 1.0 nM c-Met, 35 μM ATP, 0.5 mg/mL polyE4Y, 20 min; competitive tight-binding fit
# Summary of the method: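 Radiometric assay of 33P transfer from 33P-ATP (35 μM) to polyE4Y (0.5 mg/mL) by 1.0 nM c-Met in 100 mM HEPES pH 7.5, 10 mM MgCl2, 25 mM NaCl, 0.01% BSA, 1 mM DTT. TCA-quenched after 20 min, filter-captured, scintillation-counted; Ki fitted to a competitive tight-binding model.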
# Chain of c-MET (P08581 25-1390): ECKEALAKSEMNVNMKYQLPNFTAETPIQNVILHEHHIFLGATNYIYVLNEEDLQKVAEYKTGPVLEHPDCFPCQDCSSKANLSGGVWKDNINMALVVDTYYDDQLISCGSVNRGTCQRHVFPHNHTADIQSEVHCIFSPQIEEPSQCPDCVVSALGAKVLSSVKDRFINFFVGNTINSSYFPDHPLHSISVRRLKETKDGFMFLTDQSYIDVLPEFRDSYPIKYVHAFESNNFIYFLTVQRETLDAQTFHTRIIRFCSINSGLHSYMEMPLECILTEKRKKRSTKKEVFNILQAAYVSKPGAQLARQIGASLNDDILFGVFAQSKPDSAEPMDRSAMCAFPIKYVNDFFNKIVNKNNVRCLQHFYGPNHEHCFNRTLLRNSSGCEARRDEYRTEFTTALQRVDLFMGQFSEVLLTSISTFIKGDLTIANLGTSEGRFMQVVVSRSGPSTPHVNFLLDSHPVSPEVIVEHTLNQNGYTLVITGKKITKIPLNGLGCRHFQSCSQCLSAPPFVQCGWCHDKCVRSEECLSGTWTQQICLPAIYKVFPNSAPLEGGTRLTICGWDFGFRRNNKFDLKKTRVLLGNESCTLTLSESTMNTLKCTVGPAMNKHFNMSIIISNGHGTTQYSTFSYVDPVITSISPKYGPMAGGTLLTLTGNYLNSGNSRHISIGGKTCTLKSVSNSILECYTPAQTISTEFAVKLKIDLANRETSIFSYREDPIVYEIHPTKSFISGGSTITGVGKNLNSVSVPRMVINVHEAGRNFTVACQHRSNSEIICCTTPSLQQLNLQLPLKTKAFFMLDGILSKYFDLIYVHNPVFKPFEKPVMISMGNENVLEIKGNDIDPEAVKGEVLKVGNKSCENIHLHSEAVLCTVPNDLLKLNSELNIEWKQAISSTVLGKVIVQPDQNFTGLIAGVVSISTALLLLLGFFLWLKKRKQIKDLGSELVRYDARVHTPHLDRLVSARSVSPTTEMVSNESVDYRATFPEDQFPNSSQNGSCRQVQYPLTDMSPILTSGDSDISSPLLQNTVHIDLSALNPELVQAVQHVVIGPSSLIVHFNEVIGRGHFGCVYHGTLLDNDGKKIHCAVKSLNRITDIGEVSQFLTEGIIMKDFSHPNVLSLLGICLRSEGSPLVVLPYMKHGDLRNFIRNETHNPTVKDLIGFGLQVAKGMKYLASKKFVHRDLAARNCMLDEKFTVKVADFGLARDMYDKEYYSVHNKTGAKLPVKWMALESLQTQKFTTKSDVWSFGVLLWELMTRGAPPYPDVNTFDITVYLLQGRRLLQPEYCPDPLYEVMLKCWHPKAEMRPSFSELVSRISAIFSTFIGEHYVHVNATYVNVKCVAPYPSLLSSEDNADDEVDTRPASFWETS
row,Ki [µM],SMILES
1,≤ 0.1,CN(C)Cc1ccc(-c2cnc(N)c(-c3nncn3-c3cccc(F)c3F)n2)cc1 [I-A-8]
2,0.1 to 1,CN(C(=O)Nc1cccc(-c2cnc(N)c(-c3nnnn3-c3cccc(F)c3F)c2)c1)c1ccccc1 [I-A-274]
3,≤ 0.1,Nc1ncc(-c2cnn(C3CCN(CC4CCC4)CC3)c2)cc1-c1nnnn1-c1cccc(Cl)c1F [I-A-473]
4,0.1 to 1,CC(=O)Nc1cccc(-c2cnc(N)c(-c3nnnn3-c3cc(Cl)ccc3F)c2)c1 [I-A-568]
5,≤ 0.1,Nc1ncc(-c2ccc3c(c2)C(=O)C(=O)N3)cc1-c1nnnn1-c1cccc(F)c1F [I-A-204]
6,≤ 0.1,Nc1ncc(-c2cnn(Cc3ccccc3)c2)cc1-c1nnnn1-c1cccc(F)c1F [I-A-349]
7,0.1 to 1,Nc1ncc(-c2cccnc2)cc1-c1nnnn1-c1c(F)ccc(F)c1Cl [I-A-618]
8,0.1 to 1,CN1CCN(c2ccc(-c3cnc(N)c(-c4nccn4-c4cccc(Cl)c4Cl)c3)cc2)CC1 [I-A-402]
9,≤ 0.1,Nc1ncc(-c2cccc(NC(=O)C3CC3)c2)cc1-c1nnnn1-c1cccc(F)c1F [I-A-261]
10,≤ 0.1,Nc1ncc(-c2cnn(C3CCN(CC(F)F)CC3)c2)cc1-c1nnnn1-c1cccc(F)c1F [I-A-453]
11,0.1 to 1,Cc1c(F)cccc1-n1nnnc1-c1cc(-c2ccc(CN3CCCC3)cc2)cnc1N [I-A-598]
12,≤ 0.1,Nc1ncc(-c2cnn(C3CCCCC3)c2)cc1-c1nnnn1-c1cccc(F)c1F [I-A-403]
13,≤ 0.1,COCCn1cc(-c2cnc(N)c(-c3nnnn3-c3cccc(F)c3F)c2)cn1 [I-A-367]
14,≤ 0.1,Nc1ncc(-c2cnn(CCO)c2)cc1-c1nc2cnccc2n1-c1cccc(F)c1F [I-D-8]
15,≤ 0.1,Nc1ncc(-c2ccc(OCCO)cc2)cc1-c1nnnn1-c1cccc(F)c1F [I-A-283]
16,≤ 0.1,Nc1ncc(C2=CCN(C(=O)[C@@H]3CCCN3)CC2)cc1-c1nnnn1-c1cccc(F)c1F [I-A-504]
17,0.1 to 1,CC(=O)Nc1ccc(-c2cnc(N)c(-c3nnnn3-c3cc(F)ccc3F)c2)cc1 [I-A-581]

row,Ki [µM],SMILES
1,0.1 to 1,Nc1cccc(-c2cnc(N)c(-c3nncn3-c3cccc(Cl)c3Cl)c2)c1 [I-A-68]
2,≤ 0.1,CS(=O)(=O)c1ccc(-c2cnc(N)c(-c3nncn3-c3cccc(F)c3F)n2)cc1 [I-A-32]
3,≤ 0.1,Nc1ncc(-c2ccn(C3CCNCC3)c2)nc1-c1nnnn1-c1cccc(F)c1F [I-A-534]
4,≤ 0.1,CC(=O)Nc1ccc(-c2cnc(N)c(-c3nncn3-c3cccc(F)c3F)n2)cc1 [I-A-11]
5,0.1 to 1,CN(CCc1ccccn1)Cc1ccc(-c2cnc(N)c(-c3nnnn3-c3cccc(Cl)c3Cl)c2)cc1 [I-A-102]
6,≤ 0.1,NC(=O)[C@@H]1CCCN1Cc1ccc(-c2cnc(N)c(-c3nnnn3-c3cccc(F)c3F)c2)cc1 [I-A-132]
7,≤ 0.1,CN(C)CCCNC(=O)c1ccc(-c2cnc(N)c(-c3nnnn3-c3cccc(Cl)c3Cl)c2)cc1 [I-A-125]
8,0.1 to 1,Nc1ncc(-c2ccc(CN3CCCC3)cc2)cc1-c1nnnn1-c1cc(F)ccc1Cl [I-A-596]
9,0.1 to 1,Nc1ncc(-c2ccc(N3CCCC3)nc2)cc1-c1nnsc1-c1cccc(Cl)c1Cl [I-C-4]
10,0.1 to 1,Nc1ncc(-c2cccc(NC(=O)N3CCCC3)c2)cc1-c1nnnn1-c1cccc(F)c1F [I-A-269]
11,≤ 0.1,CSc1ccc(-c2cnc(N)c(-c3nnnn3-c3cccc(F)c3F)c2)cc1 [I-A-251]
12,≤ 0.1,CN1CCN(c2ccc(-c3cnc(N)c(-c4nc5cnccc5n4-c4cccc(F)c4F)c3)cc2)CC1 [I-D-2]
13,≤ 0.1,Nc1ncc(-c2cccc([N+](=O)[O-])c2)cc1-c1nnnn1-c1cccc(F)c1F [I-A-239]
14,≤ 0.1,CC(=O)c1ccc(-c2cnc(N)c(-c3nnnn3-c3cccc(F)c3F)c2)cc1 [I-A-219]
15,≤ 0.1,CN(C)Cc1ccc(-c2cnc(N)c(-c3nnnn3-c3c(F)ccc(F)c3F)c2)cc1 [I-A-381]
16,0.1 to 1,Nc1ncc(-c2ccc(NC(=O)CN3CCC[C@H]3CO)cc2)cc1-c1nnnn1-c1cccc(F)c1F [I-A-160]
17,≤ 0.1,Nc1ncc(-c2ccc(N3CCCC3)nc2)cc1-c1nnnn1-c1cccc(F)c1F [I-A-64]
